Assay results taken from patent US7927820B2 (priority 2004, dated 2011).
Like-named read-outs stand apart in the source and are kept apart here. Bridges are numbered along the chain shown (N, C = ends). Where no end group is shown, it is not given here.

Key:
[1] = target: N-type calcium channels in cell membranes isolated from rat brain (Rattus norvegicus, UniProt Q02294); type: binding
[2] = target: P/Q-type calcium channels (Homo sapiens, UniProt O00555); conditions: cited from earlier work
[3] = target: N-type calcium channels (Homo sapiens, UniProt Q00975); conditions: cited from earlier work
Chain of N-type calcium channels (Q00975 whole entry, looked up): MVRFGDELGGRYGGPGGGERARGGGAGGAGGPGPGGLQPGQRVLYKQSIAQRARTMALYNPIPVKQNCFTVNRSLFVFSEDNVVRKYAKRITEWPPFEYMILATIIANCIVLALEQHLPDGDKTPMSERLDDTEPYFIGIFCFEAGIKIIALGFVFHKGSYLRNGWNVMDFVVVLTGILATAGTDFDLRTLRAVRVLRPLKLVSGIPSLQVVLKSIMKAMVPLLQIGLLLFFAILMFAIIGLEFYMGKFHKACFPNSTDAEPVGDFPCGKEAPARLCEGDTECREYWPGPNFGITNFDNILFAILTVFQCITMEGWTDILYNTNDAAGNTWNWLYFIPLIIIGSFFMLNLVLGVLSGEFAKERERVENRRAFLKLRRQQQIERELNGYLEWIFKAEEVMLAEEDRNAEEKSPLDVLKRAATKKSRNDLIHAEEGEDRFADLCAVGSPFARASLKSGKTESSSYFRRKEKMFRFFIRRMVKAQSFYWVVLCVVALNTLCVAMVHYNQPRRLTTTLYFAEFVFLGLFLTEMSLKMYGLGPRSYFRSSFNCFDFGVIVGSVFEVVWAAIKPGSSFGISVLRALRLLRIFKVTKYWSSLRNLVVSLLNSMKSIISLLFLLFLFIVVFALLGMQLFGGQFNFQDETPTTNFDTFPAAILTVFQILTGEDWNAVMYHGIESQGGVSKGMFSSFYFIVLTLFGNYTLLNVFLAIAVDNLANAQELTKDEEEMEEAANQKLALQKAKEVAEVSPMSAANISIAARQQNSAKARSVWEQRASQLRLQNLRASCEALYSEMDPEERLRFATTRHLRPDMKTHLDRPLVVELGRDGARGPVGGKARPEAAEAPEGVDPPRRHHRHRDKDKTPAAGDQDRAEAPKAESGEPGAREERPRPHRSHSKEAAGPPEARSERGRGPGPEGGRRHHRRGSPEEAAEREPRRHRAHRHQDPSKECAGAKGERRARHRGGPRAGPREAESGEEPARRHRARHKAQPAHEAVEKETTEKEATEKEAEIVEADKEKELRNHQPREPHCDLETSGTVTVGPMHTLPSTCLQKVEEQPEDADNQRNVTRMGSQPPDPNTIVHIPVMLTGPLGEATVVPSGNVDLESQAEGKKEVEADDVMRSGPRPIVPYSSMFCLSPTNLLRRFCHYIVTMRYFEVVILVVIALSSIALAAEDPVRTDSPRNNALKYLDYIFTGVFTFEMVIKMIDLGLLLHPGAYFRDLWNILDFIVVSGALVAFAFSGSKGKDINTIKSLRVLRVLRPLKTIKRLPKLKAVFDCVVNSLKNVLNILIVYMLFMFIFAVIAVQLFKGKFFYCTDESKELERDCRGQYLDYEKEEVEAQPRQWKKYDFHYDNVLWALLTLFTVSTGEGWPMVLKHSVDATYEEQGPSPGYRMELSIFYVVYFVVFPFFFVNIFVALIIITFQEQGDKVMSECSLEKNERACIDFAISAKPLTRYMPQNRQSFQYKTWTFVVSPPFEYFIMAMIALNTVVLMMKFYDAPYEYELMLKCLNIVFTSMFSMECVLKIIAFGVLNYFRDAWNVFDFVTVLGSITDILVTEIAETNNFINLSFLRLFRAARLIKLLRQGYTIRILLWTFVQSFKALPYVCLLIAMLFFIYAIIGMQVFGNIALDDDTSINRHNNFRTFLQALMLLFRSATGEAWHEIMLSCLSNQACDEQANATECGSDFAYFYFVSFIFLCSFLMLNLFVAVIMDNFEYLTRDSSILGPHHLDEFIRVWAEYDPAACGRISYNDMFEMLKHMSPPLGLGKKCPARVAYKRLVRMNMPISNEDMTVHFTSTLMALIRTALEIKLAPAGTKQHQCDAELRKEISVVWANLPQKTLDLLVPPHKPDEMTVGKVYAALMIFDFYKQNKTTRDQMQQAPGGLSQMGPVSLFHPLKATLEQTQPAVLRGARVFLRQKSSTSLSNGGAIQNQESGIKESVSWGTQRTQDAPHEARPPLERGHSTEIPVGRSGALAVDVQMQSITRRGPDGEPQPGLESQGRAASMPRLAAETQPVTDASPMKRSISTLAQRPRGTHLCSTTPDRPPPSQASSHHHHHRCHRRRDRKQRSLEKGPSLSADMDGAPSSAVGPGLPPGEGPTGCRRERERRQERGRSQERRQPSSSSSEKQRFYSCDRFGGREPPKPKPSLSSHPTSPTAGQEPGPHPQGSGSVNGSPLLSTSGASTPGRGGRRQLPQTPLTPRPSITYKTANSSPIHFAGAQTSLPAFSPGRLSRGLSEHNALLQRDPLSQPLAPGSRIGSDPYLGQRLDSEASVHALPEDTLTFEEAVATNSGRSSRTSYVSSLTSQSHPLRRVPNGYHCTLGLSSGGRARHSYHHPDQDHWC

Chain of N-type calcium channels in cell membranes isolated from rat brain (Q02294 whole entry, looked up): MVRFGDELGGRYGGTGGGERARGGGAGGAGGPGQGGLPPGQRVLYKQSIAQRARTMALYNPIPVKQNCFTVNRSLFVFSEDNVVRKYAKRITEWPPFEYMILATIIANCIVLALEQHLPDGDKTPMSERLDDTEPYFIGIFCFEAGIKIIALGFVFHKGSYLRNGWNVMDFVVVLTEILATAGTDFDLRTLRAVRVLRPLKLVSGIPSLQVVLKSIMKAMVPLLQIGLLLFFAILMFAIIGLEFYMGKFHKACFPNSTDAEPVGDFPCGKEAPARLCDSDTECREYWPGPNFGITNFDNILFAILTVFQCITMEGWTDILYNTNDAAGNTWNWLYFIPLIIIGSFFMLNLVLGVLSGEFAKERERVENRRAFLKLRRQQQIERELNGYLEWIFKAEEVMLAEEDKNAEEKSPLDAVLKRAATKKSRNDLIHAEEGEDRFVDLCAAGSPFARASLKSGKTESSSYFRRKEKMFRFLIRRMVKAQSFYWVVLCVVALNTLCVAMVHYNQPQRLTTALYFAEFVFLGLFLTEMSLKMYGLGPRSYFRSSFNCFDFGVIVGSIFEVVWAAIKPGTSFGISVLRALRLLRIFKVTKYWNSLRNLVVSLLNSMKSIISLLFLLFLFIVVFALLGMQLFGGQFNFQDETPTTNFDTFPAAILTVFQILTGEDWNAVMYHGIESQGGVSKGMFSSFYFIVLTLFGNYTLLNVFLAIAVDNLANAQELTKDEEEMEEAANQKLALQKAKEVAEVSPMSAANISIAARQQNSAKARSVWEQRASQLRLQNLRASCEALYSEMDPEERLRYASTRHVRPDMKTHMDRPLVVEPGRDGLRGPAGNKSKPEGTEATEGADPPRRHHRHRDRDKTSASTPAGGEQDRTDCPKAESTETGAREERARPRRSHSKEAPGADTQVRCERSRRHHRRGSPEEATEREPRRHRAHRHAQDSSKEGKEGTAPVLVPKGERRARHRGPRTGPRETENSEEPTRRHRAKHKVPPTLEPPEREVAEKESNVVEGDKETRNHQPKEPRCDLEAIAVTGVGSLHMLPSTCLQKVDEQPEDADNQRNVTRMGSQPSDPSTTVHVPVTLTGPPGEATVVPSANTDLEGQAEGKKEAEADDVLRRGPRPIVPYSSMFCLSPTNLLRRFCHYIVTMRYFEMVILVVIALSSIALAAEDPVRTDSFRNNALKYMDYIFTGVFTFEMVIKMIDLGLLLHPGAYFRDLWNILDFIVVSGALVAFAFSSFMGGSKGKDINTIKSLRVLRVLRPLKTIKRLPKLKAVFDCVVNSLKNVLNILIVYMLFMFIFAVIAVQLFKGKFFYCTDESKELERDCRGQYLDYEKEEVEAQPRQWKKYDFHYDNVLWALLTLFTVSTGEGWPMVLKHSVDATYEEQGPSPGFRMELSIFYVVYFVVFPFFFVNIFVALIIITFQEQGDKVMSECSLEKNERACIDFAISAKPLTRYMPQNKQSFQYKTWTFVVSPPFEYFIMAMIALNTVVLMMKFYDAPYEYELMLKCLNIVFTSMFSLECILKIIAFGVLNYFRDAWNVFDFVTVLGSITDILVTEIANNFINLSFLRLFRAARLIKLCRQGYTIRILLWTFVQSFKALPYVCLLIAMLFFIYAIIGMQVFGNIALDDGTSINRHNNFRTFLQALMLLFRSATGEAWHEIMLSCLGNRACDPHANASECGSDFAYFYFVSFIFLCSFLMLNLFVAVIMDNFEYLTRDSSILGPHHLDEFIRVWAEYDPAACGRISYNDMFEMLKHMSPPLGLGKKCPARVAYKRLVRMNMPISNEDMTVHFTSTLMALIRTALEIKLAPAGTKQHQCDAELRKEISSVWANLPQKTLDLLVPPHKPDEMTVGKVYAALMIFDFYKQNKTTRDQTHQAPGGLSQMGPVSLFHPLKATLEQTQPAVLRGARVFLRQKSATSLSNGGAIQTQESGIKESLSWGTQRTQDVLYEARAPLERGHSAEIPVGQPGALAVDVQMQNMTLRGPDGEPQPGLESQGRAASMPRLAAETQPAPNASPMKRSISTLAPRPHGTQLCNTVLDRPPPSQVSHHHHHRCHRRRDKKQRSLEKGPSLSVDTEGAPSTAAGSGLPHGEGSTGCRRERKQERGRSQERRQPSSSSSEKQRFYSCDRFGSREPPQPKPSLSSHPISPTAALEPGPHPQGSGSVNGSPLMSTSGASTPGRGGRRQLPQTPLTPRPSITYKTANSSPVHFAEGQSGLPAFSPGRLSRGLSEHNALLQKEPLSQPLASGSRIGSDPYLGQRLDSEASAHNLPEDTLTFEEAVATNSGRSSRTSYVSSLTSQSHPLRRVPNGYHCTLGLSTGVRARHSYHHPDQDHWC

Substance | relative binding affinity (order of displacement of [125I]GVIA binding) [1] | P/Q-type calcium channel inhibition or binding (description) ([2]; literature) | N-type calcium channel block (description) [3] | P/Q-type calcium channel inhibition or binding (description) [2]
KKKCIAKDYGRCKWGGTPCCRGRGCICSIMGTNCECKPRLIMEGLGLA (disulfide 4-20, 12-25, 19-36, 27-34 (inferred)) [ω-Agatoxin, ω-Agatoxin IVA] | lowest relative binding affinity | has been shown to bind |  | 
ω-conotoxin GVIA | highest relative binding affinity |  | potent and selective blocker | 
ω-conotoxin MVIIC |  |  | weak inhibitor | potent inhibitor
